Results from patent publication US20050197350A1, “Novel quinoline, tetrahydroquinazoline, and pyrimidine derivatives and methods of treatment related to the use thereof” (TAISHO PHARMACEUTICAL CO., LTD., priority 2003, published 2005).

The molecules below were run on MCH receptors (assay: MCH receptor activity class (method not given)). Details: class by percent of control at 10^-7 M or IC50.
In the case of `Cc1ccc(C(=O)NC[C@H]2CC[C@@H](Nc3nc4c(c(N(C)C)n3)CCCC4)CC2)cc1` [compound 613], the class is reported as 3 (Class 3 The value of percent of control at 10^−7 M was more than 60% or the value of IC50 was more than 200 nM.). For `CN(C)c1nc(N[C@H]2CC[C@@H](CNC(=O)c3cccs3)CC2)nc2c1CCCC2` [compound 614], the class was 3 (Class 3 The value of percent of control at 10^−7 M was more than 60% or the value of IC50 was more than 200 nM.). `CN(C)c1nc(N[C@H]2CC[C@@H](CNC(=O)Cc3cccs3)CC2)nc2c1CCCC2` [compound 615] was tested, and the class was 3 (Class 3 The value of percent of control at 10^−7 M was more than 60% or the value of IC50 was more than 200 nM.). In the case of `CN(C)c1nc(N[C@H]2CC[C@@H](CNC(=O)c3cccc(OC(F)(F)F)c3)CC2)nc2c1CCCC2` [compound 616], the class is reported as 3 (Class 3 The value of percent of control at 10^−7 M was more than 60% or the value of IC50 was more than 200 nM.). In the case of `CN(C)c1nc(N[C@H]2CC[C@@H](CNC(=O)OCc3ccccc3)CC2)nc2c1CCCC2` [compound 617], the class is reported as 3 (Class 3 The value of percent of control at 10^−7 M was more than 60% or the value of IC50 was more than 200 nM.). For `CN(C)c1nc(N[C@H]2CC[C@@H](CNC(=O)OCc3ccc([N+](=O)[O-])cc3)CC2)nc2c1CCCC2` [compound 618], the class was 3 (Class 3 The value of percent of control at 10^−7 M was more than 60% or the value of IC50 was more than 200 nM.). With `Cc1cc(C(=O)NC[C@H]2CC[C@@H](Nc3nc4c(c(N(C)C)n3)CCCC4)CC2)ccc1Br` [compound 619] the class was 3 (Class 3 The value of percent of control at 10^−7 M was more than 60% or the value of IC50 was more than 200 nM.). For `CN(C)c1nc(N[C@H]2CC[C@@H](CNC(=O)c3cccc(I)c3)CC2)nc2c1CCCC2` [compound 620], the class was 3 (Class 3 The value of percent of control at 10^−7 M was more than 60% or the value of IC50 was more than 200 nM.). With `CN(C)c1nc(N[C@H]2CC[C@@H](CNC(=O)c3cccc(Cl)c3F)CC2)nc2c1CCCC2` [compound 621] the class was 3 (Class 3 The value of percent of control at 10^−7 M was more than 60% or the value of IC50 was more than 200 nM.). `Cc1ccc(C(=O)NC[C@H]2CC[C@@H](Nc3nc4c(c(N(C)C)n3)CCCC4)CC2)c(F)c1F` [compound 622] was tested, and the class was 3 (Class 3 The value of percent of control at 10^−7 M was more than 60% or the value of IC50 was more than 200 nM.). With `CN(C)c1nc(N[C@H]2CC[C@@H](CNC(=O)c3ccc(F)cc3Cl)CC2)nc2c1CCCC2` [compound 623] the class was 3 (Class 3 The value of percent of control at 10^−7 M was more than 60% or the value of IC50 was more than 200 nM.). In the case of `CN(C)c1nc(N[C@H]2CC[C@@H](CNC(=O)c3ccc(F)c(Cl)c3F)CC2)nc2c1CCCC2` [compound 624], the class is reported as 3 (Class 3 The value of percent of control at 10^−7 M was more than 60% or the value of IC50 was more than 200 nM.). In the case of `CN(C)c1nc(N[C@H]2CC[C@@H](CNC(=O)CSc3ccccc3)CC2)nc2c1CCCC2` [compound 625], the class is reported as 3 (Class 3 The value of percent of control at 10^−7 M was more than 60% or the value of IC50 was more than 200 nM.). For `CN(C)c1nc(N[C@H]2CC[C@@H](CNC(=O)c3cccc(C(F)(F)F)c3F)CC2)nc2c1CCCC2` [compound 626], the class was 3 (Class 3 The value of percent of control at 10^−7 M was more than 60% or the value of IC50 was more than 200 nM.). For `CN(C)c1nc(N[C@H]2CC[C@@H](CNC(=O)c3cc(C(F)(F)F)ccc3F)CC2)nc2c1CCCC2` [compound 627], the class was 3 (Class 3 The value of percent of control at 10^−7 M was more than 60% or the value of IC50 was more than 200 nM.). In the case of `COc1cccc(CC(=O)NC[C@H]2CC[C@@H](Nc3nc4c(c(N(C)C)n3)CCCC4)CC2)c1` [compound 629], the class is reported as 3 (Class 3 The value of percent of control at 10^−7 M was more than 60% or the value of IC50 was more than 200 nM.). In the case of `CN(C)c1nc(N[C@H]2CC[C@@H](CNC(=O)Cc3ccc(F)cc3)CC2)nc2c1CCCC2` [compound 630], the class is reported as 3 (Class 3 The value of percent of control at 10^−7 M was more than 60% or the value of IC50 was more than 200 nM.). For `COc1ccc(CC(=O)NC[C@H]2CC[C@@H](Nc3nc4c(c(N(C)C)n3)CCCC4)CC2)cc1` [compound 631], the class was 1 (Class 1: The value of percent of control at 10^−7 M was less than 40% or the value of IC50 was less than 50 nM.). In the case of `Cc1cc(C(=O)NC[C@H]2CC[C@@H](Nc3nc4c(c(N(C)C)n3)CCCC4)CC2)c(C(F)(F)F)o1` [compound 632], the class is reported as 1 (Class 1: The value of percent of control at 10^−7 M was less than 40% or the value of IC50 was less than 50 nM.). In the case of `Cc1cc(C(=O)NC[C@H]2CC[C@@H](Nc3nc4c(c(N(C)C)n3)CCCC4)CC2)c(C)o1` [compound 633], the class is reported as 3 (Class 3 The value of percent of control at 10^−7 M was more than 60% or the value of IC50 was more than 200 nM.). `CCOc1ccccc1C(=O)NC[C@H]1CC[C@@H](Nc2nc3c(c(N(C)C)n2)CCCC3)CC1` [compound 634] was tested, and the class was 3 (Class 3 The value of percent of control at 10^−7 M was more than 60% or the value of IC50 was more than 200 nM.). With `CN(C)c1nc(N[C@H]2CC[C@@H](CNC(=O)c3ccc(F)c(Cl)c3)CC2)nc2c1CCCC2` [compound 635] the class was 3 (Class 3 The value of percent of control at 10^−7 M was more than 60% or the value of IC50 was more than 200 nM.). In the case of `Cc1ccc(C(=O)NC[C@H]2CC[C@@H](Nc3nc4c(c(N(C)C)n3)CCCC4)CC2)cc1F` [compound 636], the class is reported as 3 (Class 3 The value of percent of control at 10^−7 M was more than 60% or the value of IC50 was more than 200 nM.). With `CN(C)c1nc(N[C@H]2CC[C@@H](CNC(=O)CC3CCCC3)CC2)nc2c1CCCC2` [compound 637] the class was 3 (Class 3 The value of percent of control at 10^−7 M was more than 60% or the value of IC50 was more than 200 nM.). For `COc1cc(OC)cc(C(=O)NC[C@H]2CC[C@@H](Nc3nc4c(c(N(C)C)n3)CCCC4)CC2)c1` [compound 638], the class was 3 (Class 3 The value of percent of control at 10^−7 M was more than 60% or the value of IC50 was more than 200 nM.). In the case of `CN(C)c1nc(N[C@H]2CC[C@@H](CNC(=O)c3ccc(C#N)cc3)CC2)nc2c1CCCC2` [compound 639], the class is reported as 3 (Class 3 The value of percent of control at 10^−7 M was more than 60% or the value of IC50 was more than 200 nM.). `CN(C)c1nc(N[C@H]2CC[C@@H](CNC(=O)c3cc(C(F)(F)F)cc(C(F)(F)F)c3)CC2)nc2c1CCCC2` [compound 640] was tested, and the class was 3 (Class 3 The value of percent of control at 10^−7 M was more than 60% or the value of IC50 was more than 200 nM.). `CN(C)c1nc(N[C@H]2CC[C@@H](CNC(=O)/C=C/c3ccc([N+](=O)[O-])cc3)CC2)nc2c1CCCC2` [compound 641] was tested, and the class was 2 (Class 2: The value of percent of control at 10^−7 M was from 40% to 60% or the value of IC′50 was from 50 nM to 200 nM.). `CN(C)c1nc(N[C@H]2CC[C@@H](CNC(=O)Cc3ccccc3Br)CC2)nc2c1CCCC2` [compound 642] was tested, and the class was 3 (Class 3 The value of percent of control at 10^−7 M was more than 60% or the value of IC50 was more than 200 nM.). In the case of `Cc1cc(C(=O)NC[C@H]2CC[C@@H](Nc3nc4c(c(N(C)C)n3)CCCC4)CC2)ccc1F` [compound 643], the class is reported as 2 (Class 2: The value of percent of control at 10^−7 M was from 40% to 60% or the value of IC′50 was from 50 nM to 200 nM.). `CN(C)c1nc(N[C@H]2CC[C@@H](CNC(=O)c3ccccc3SC(F)F)CC2)nc2c1CCCC2` [compound 644] was tested, and the class was 3 (Class 3 The value of percent of control at 10^−7 M was more than 60% or the value of IC50 was more than 200 nM.). In the case of `CN(C)c1nc(N[C@H]2CC[C@@H](CNC(=O)c3cc(Cl)sc3Cl)CC2)nc2c1CCCC2` [compound 645], the class is reported as 3 (Class 3 The value of percent of control at 10^−7 M was more than 60% or the value of IC50 was more than 200 nM.). `CCCSc1ncccc1C(=O)NC[C@H]1CC[C@@H](Nc2nc3c(c(N(C)C)n2)CCCC3)CC1` [compound 646] was tested, and the class was 1 (Class 1: The value of percent of control at 10^−7 M was less than 40% or the value of IC50 was less than 50 nM.). `CN(C)c1nc(N[C@H]2CC[C@@H](CNC(=O)c3cc(C(C)(C)C)nn3Cc3ccccc3)CC2)nc2c1CCCC2` [compound 647] was tested, and the class was 3 (Class 3 The value of percent of control at 10^−7 M was more than 60% or the value of IC50 was more than 200 nM.). `CN(C)c1nc(N[C@H]2CC[C@@H](CNC(=O)c3cc(C(C)(C)C)nn3C)CC2)nc2c1CCCC2` [compound 648] was tested, and the class was 3 (Class 3 The value of percent of control at 10^−7 M was more than 60% or the value of IC50 was more than 200 nM.). `C/C(=C\c1ccccc1)C(=O)NC[C@H]1CC[C@@H](Nc2nc3c(c(N(C)C)n2)CCCC3)CC1` [compound 649] was tested, and the class was 3 (Class 3 The value of percent of control at 10^−7 M was more than 60% or the value of IC50 was more than 200 nM.). With `CN(C)c1nc(N[C@H]2CC[C@@H](CNC(=O)c3cncc(Br)c3)CC2)nc2c1CCCC2` [compound 650] the class was 3 (Class 3 The value of percent of control at 10^−7 M was more than 60% or the value of IC50 was more than 200 nM.). In the case of `CN(C)c1nc(N[C@H]2CC[C@@H](CNC(=O)Cc3cccc4ccccc34)CC2)nc2c1CCCC2` [compound 651], the class is reported as 3 (Class 3 The value of percent of control at 10^−7 M was more than 60% or the value of IC50 was more than 200 nM.). In the case of `Cc1cc(C(=O)NC[C@H]2CC[C@@H](Nc3nc4c(c(N(C)C)n3)CCCC4)CC2)nn1C(C)(C)C` [compound 652], the class is reported as 3 (Class 3 The value of percent of control at 10^−7 M was more than 60% or the value of IC50 was more than 200 nM.). In the case of `CN(C)c1nc(N[C@H]2CC[C@@H](CNC(=O)c3csc4ccccc34)CC2)nc2c1CCCC2` [compound 653], the class is reported as 3 (Class 3 The value of percent of control at 10^−7 M was more than 60% or the value of IC50 was more than 200 nM.). For `CN(C)c1nc(N[C@H]2CC[C@@H](CNC(=O)c3ccc(-c4ccccc4)cc3)CC2)nc2c1CCCC2` [compound 654], the class was 3 (Class 3 The value of percent of control at 10^−7 M was more than 60% or the value of IC50 was more than 200 nM.). In the case of `CN(C)c1nc(N[C@H]2CC[C@@H](CNC(=O)c3ccccc3Br)CC2)nc2c1CCCC2` [compound 655], the class is reported as 3 (Class 3 The value of percent of control at 10^−7 M was more than 60% or the value of IC50 was more than 200 nM.).
